“Also recorded” adds a separate entry of the source. Where a name gives a salt, the structure may show the parent alone. Read-outs that look alike come from different tables or passages of the source.
What was measured:
[1] = system: E1: Enzyme derived from Streptomyces avellaneus (acetylpolyamine amidohydrolase); details: cited from earlier work
[2] = molecular target: T1, acetylpolyamine amidohydrolase (the present enzyme, product purified to homogeneity) (Mycoplana ramosa, UniProt Q48935); test: Enzyme activity on acetylpolyamine substrates, product purified to homogeneity (Method 2 / Method 3); format: biochemical, Mycoplana bullata; details: 37° C., phosphate and borate buffers, per substrate
T1 construct: novel acetylpolyamine amidohydrolase of the present invention accumulated within the grown cells; made in house; host or cells: Mycoplana (natural producer)
T1 sequence (Q48935 1-341): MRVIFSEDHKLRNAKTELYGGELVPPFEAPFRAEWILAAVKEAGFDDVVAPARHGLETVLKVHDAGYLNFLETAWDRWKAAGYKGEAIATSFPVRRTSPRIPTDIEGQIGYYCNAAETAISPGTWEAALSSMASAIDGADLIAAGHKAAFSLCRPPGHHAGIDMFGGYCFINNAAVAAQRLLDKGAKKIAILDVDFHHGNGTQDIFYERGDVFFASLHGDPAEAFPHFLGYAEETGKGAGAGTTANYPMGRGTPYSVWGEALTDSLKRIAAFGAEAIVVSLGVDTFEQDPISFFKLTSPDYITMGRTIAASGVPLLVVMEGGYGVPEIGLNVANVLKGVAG
From the text: [Method 2] (Assay when acetylputrescine, acetylcadaverine, N^1 -acetylspermidine and N^8 -acetylspermidine are used as substrate:)
The acetylpolyamine can be hydrolyzed by the acetylpolyamine amidohydrolase, as described in [Method 1], and the corresponding free polyamine thus formed is then oxidized by putrescine oxidase. Putrescine oxidase derived from Micrococcus rubens is known to have an activity upon putrescine, cadaverine and spermidine [Adachi, et al., Agric. Biol. Chem, 30, 1202 (1966)]. […] The actual analytical procedure is as described below.
(§1) The above reagents, (b) through (h), were put in a cuvette (d: 1.0 cm) and the mixture was preincubated at 37° C. for 2 minutes. The substrate solution (a) was then added, and the resulting mixture was incubated at 37° C. Absorbance at 500 nm was measured over a period of 3 to 5 minutes, and the change in absorbance per minute (ΔODsample) was determined from the linear portion of the plotted curve. For control, the same procedure as above was carried out, using distilled water as reference.
(§2) One unit of acetylpolyamine amidohydrolase is defined as its amount necessary to hydrolyze 1 μmole of acetylputrescine at 37° C. for one minute (or the amount necessary to form 0.5 μmole of quinoneimine pigment formed in the method for measuring the enzyme activity described above).
[Method 3] (Assay when acetylspermine is used as substrate:)
Acetylspermine is hydrolyzed by the action of acetylpolyamine amidohydrolase into free form of spermine. The free form of spermine can be oxidized by a polyamine oxidase derived from Aspergillus terreus to produce hydrogen peroxide. Two molar equivalents of hydrogen peroxide is formed from one molar equivalent of spermine. Thus, the enzyme activity can be measured by quantitative determination of the hydrogen peroxide according to the method described above. However, since the above polyamine oxidase also acts upon acetylspermine, it is impossible to exactly measure the activity of acetylpolyamine amidohydrolase by the standard assay. […] The actual procedure is described below.
Reagents (b) through (d) given in item (1) were put in a test tube and the mixture was preincubated at 37° C. for 2 minutes. The substrate solution (a) was then added, the resulting mixture was incubated at 37° C. for 10 minutes, and the reaction was stopped by addition of the termination (e). A sample solution (100 μl) was taken from the reaction mixture and subjected to HPLC as described above to separate free form of spermine from acetylspermine. Generally, acetylspermine is eluted at a position of 38 minutes after the start of elution and free form of spermine at a position of 41 minutes after the start of elution. A sample solution (200 μl), taken from the eluate containing free form of spermine, was mixed in a cuvette with reagents (a) through (e) given in item (2) above, the mixture was incubated at 37° C. for 10 minutes, and the absorbance at 755 nm was measured. For control, the same procedure as above was carried out using 200 μl of Elunt A in place of the sample solution, as reference.
The concentration of free form of spermine in the reaction mixture can be determined from a calibration curve previously prepared on the basis of aqueous soluitons of free form of spermine with different concentrations. If the concentration of free form of spermine contained in 150 μl of the reaction mixture is taken as P (mM), then the potency (A) for 1 ml of the enzyme solution can be expressed by the following equation: […]
The activities upon acetylputrescine, acetylcadaverine, N^1 -acetylspermidine and N^8 -acetylspermidine were measured by [Method 2] in a phosphate buffer (pH 9.0) at a substrate concentration of 0.833 mM, and the activity upon acetyl-spermine was measured by [Method 3] under the same conditions. […] Km values, determined from the Lineweaver-Burk plot, are also listed in the same table. […]

[3] = system: E2: Enzyme derived from Arthrobacter sp. (acetylpolyamine amidohydrolase); details: pH 7.0, cited from earlier work
[4] = molecular target: T1, acetylpolyamine amidohydrolase (the present enzyme, product purified to homogeneity); test: Effects of various compounds upon enzyme activity, product purified to homogeneity (Method 1); format: biochemical, Mycoplana bullata; details: for activity at 100 µM: read-out: Relative Activity (%) at 0.1 mM
From the text: [Method 1] (Standard assay)
In this standard method for measuring the activity of acetylpolyamine amidohydrolases, the enzyme being tested is allowed to react with acetylputrescine as substrate to produce putrescine, which is in turn oxidized with putrescine oxidase. Hydrogen peroxide thus formed is then subjected to oxidative condensation with phenol and 4-aminoantipyrine in the presence of horseradish peroxidase to form quinoneimine pigment. The rate of increase in the absorbance of a colored reaction solution at 500 nm is measured with a spectrophotometer.
as §1, with “then added” for “then added,”, “was held” for “was incubated”, “37° C., absorbance” for “37° C. Absorbance”
as §2
To 50 mM Tris-HCl buffer (pH 7.0) containing the present enzyme, was added each of the compounds being tested to a concentration of 0.1 mM or 1.0 mM. The mixture was incubated at 37° C. for 10 minutes, a sample solution was taken out, and its residual activity was measured according to the procedure described in [Method 1].

[5] = system: E2: Enzyme derived from Arthrobacter sp.; details: concentration of 1mM; acetylputrescine as substrate; cited from earlier work
[6] = system: E3: Enzyme derived from Micrococcus luteus; details: cited from earlier work
[7] = system: E1: Enzyme derived from Streptomyces avellaneus; details: concentration of 1mM; acetylputrescine as substrate; cited from earlier work
[8] = molecular target: T2, acetylpolyamine amidohydrolase (the present enzyme, partially purified product) (Mycoplana ramosa, UniProt Q48935); test: Effects of inhibitors and metal ions, partially purified present enzyme; format: biochemical, Mycoplana bullata; details: for Inhibition of the present enzyme (in words): partially purified product; for inhibition at 1000 µM: read-out: Relative activity in presence of inhibitor/metal ion, the present enzyme
T2 construct: novel acetylpolyamine amidohydrolase of the present invention accumulated within the grown cells; made in house; host or cells: Mycoplana (natural producer; cells grown in culture)
T2 sequence (Q48935 1-341): T1 sequence (Q48935 1-341)
Method: Activity of the present enzyme (partially purified products) is measured according to the following procedure. That is, 0.1 ml of an enzyme solution is added to a reagent solution consisting of 1.5 ml of 0.1 M phosphate buffer (pH 7.0), 0.05 ml of 50 mM acetylpolyamine, 0.4 U of putrescine oxidase (when acetylputrescine, acetylcadaverine or acetylspermidine is used as substrate) or polyamine oxidase (when acetylspermidine or acetylspermine is used as substrate), 0.5 ml of 2.4 mM 4-aminoantipyrine, 0.5 ml of 42 mM phenol and 20 U of peroxidase. The mixture is incubated at 37° C., and the absorbance of quinoneimine pigment formed at 500 nm is measured.
The effects of various inhibitors and metal ions upon the present enzyme and the other known enzymes were examined using acetylputrescine as substrate.

[9] = compound 0.1 mM, 50 mM Tris-HCl pH 7.0, 37° C., 10 minutes, residual activity
[10] = compound 1.0 mM, 50 mM Tris-HCl pH 7.0, 37° C., 10 minutes, residual activity
[11] = compound 1.0 mM, 50 mM Tris-HCl pH 7.0, 37° C., 10 minutes, residual activity, read-out: Relative Activity (%) at 1.0 mM
[12] = concentration of 1mM, acetylputrescine as substrate
[13] = concentration of 1mM, acetylputrescine as substrate, no addition = 100%

Acetylspermidine
Relative activity, E1 ([1]; pH 7.0, activity against acetylputrescine defined as 100): 9.1% | Km ([1]; pH 7.0, read-out: Km, E1): 1100 µM | Relative activity, St. avellaneus enzyme ([1]; reported reference data in Table 5, acetylputrescine = 100): 9.1% | Km ([1]; reported reference data in Table 5, read-out: Km, St. avellaneus enzyme): 1100 µM | Optimum pH [2]: 9 | Relative activity, E2 ([3]; activity against acetylputrescine defined as 100): 30% | Km [3]: 500 µM

[Cl-].[Cl-].[Zn+2] [ZnCl2]
Relative Activity (%) at 0.1 mM [4, 9]: 1% | Relative Activity (%) at 1.0 mM [4, 10]: 22%

O=S(=O)(F)Cc1ccccc1 [Phenylmethanesulfonyl fluoride]
Relative Activity (%) at 0.1 mM [4, 9]: 86% | Relative Activity (%) at 1.0 mM [4, 10]: 90% | Inhibition of the present enzyme (in words) ([4]; purified to homogeneity): slightly inhibited

c1ccc(-c2ccccn2)nc1 [a,a'-Dipyridyl]
activity at 1000 µM [4, 11]: 92%

[Ni+2] [Ni^2+]
Relative activity in presence of inhibitor/metal ion, E2 [5]: 55% | Relative activity in presence of inhibitor/metal ion, E3 [6, 12]: 33% | Relative activity in presence of inhibitor/metal ion, E1 [7]: 3% | Relative activity in presence of inhibitor/metal ion, the present enzyme [8, 13]: 81% | Inhibition of the present enzyme (in words) [8]: hardly inhibited

[Mn+2] [Mn^2+]
Relative activity in presence of inhibitor/metal ion, E2 [5]: 101% | Relative activity in presence of inhibitor/metal ion, E3 [6, 12]: 50% | Relative activity in presence of inhibitor/metal ion, E1 [7]: 82% | Relative activity in presence of inhibitor/metal ion, the present enzyme [8, 13]: 124%

[Cu+2] [Cu^2+]
Relative activity in presence of inhibitor/metal ion, E3 [6, 12]: 26% | Relative activity in presence of inhibitor/metal ion, the present enzyme [8, 13]: 99%

c1cnc2c(c1)ccc1cccnc12 [o-Phenanthroline]
Relative activity in presence of inhibitor/metal ion, E2 [5]: 94% | Relative activity in presence of inhibitor/metal ion, E3 [6, 12]: 33% | Relative activity in presence of inhibitor/metal ion, E1 [7]: 14% | activity at 1000 µM [4, 11]: 95% | Inhibition of the present enzyme (in words) ([4]; purified to homogeneity): no inhibitory action | inhibition at 1000 µM [8, 13]: 68%

O=[N+]([O-])[O-].[Ag+] [AgNO3]
Relative Activity (%) at 0.1 mM [4, 9]: 107% | Relative Activity (%) at 1.0 mM [4, 10]: 41% | Inhibition of the present enzyme (in words) ([4]; purified to homogeneity): inhibited

NO [Hydroxylamine]
Relative activity in presence of inhibitor/metal ion, the present enzyme [8, 13]: 24%

CCN(CC)C(=S)S [DDC, Diethyldithiocarbamate]
activity at 100 µM [4, 9]: 93% | activity at 1000 µM [4, 11]: 94% | inhibition at 1000 µM [8, 13]: 0%

[N-]=[N+]=[N-].[Na+] [NaN3]
Relative activity in presence of inhibitor/metal ion, E2 [5]: 99% | Relative activity in presence of inhibitor/metal ion, E3 [6, 12]: 98% | Relative activity in presence of inhibitor/metal ion, E1 [7]: 93% | Relative Activity (%) at 1.0 mM [4, 10]: 95% | Relative activity in presence of inhibitor/metal ion, the present enzyme [8, 13]: 90%

[Cl-].[Cl-].[Mg+2] [MgCl2]
Relative Activity (%) at 0.1 mM [4, 9]: 87% | Relative Activity (%) at 1.0 mM [4, 10]: 85%

[Cl][Ni][Cl] [NiCl2]
Relative Activity (%) at 1.0 mM [4, 10]: 90%

[Zn+2] [Zn^2+]
Relative activity in presence of inhibitor/metal ion, E2 [5]: 32% | Relative activity in presence of inhibitor/metal ion, E3 [6, 12]: 4% | Relative activity in presence of inhibitor/metal ion, E1 [7]: 3% | Inhibition of the present enzyme (in words) ([4]; purified to homogeneity): inhibited; also recorded: most remarkably | Relative activity in presence of inhibitor/metal ion, the present enzyme [8, 13]: 100% | Inhibition of the present enzyme (in words) [8]: hardly inhibited

[Cl-].[Cl-].[Co+2] [CoCl2]
Relative Activity (%) at 1.0 mM [4, 10]: 105%

NNC(N)=O [Semicarbazide hydrochloride]
activity at 100 µM [4, 9]: 103% | activity at 1000 µM [4, 11]: 91%

O=C(O)c1cc[c]([Hg][Cl])cc1 [pCMB, -p(Chloromercuri)benzoic acid]
Relative activity in presence of inhibitor/metal ion, E2 [5]: 8% | Relative activity in presence of inhibitor/metal ion, E3 [6, 12]: 98% | Relative activity in presence of inhibitor/metal ion, E1 [7]: 0% | Relative Activity (%) at 0.1 mM [4, 9]: 107% | Relative Activity (%) at 1.0 mM [4, 10]: 90% | Inhibition of the present enzyme (in words) ([4]; purified to homogeneity): slightly inhibited | Relative activity in presence of inhibitor/metal ion, the present enzyme [8, 13]: 4%

O=C(O)CN(CCN(CC(=O)O)CC(=O)O)CC(=O)O [EDTA · 2Na]
Inhibition of the present enzyme (in words) [4]: no inhibitory action | activity at 1000 µM ([4]; pH 7, read-out: Relative Activity (%) at 1.0 mM): 97%

Oc1cccc2cccnc12 [8-Hydroxyquinoline]
Relative activity in presence of inhibitor/metal ion, E3 [6]: 98 | Inhibition of the present enzyme (in words) [4]: considerably inhibited | Relative Activity (%) at 0.1 mM ([4]; pH 7): 57% | Relative Activity (%) at 1.0 mM ([4]; pH 7): 66% | Relative activity in presence of inhibitor/metal ion, the present enzyme [8]: 3

[Mg+2] [Mg^2+]
Relative activity in presence of inhibitor/metal ion, E2 [5]: 112% | Relative activity in presence of inhibitor/metal ion, E3 [6, 12]: 99% | Relative activity in presence of inhibitor/metal ion, E1 [7]: 104% | Inhibition of the present enzyme (in words) ([4]; purified to homogeneity): inhibited | Relative activity in presence of inhibitor/metal ion, the present enzyme [8, 13]: 97%
